Test results from patent US6358885B1, “Substituted phenylheterocyclic herbicides” (Mississippi State University, priority 1992, dated 2002).

Columns and labels:
[1] = test system: wild oat; assay: Test B preemergence/postemergence greenhouse plant response rating 0 to 10; format: in vivo, Avena fatua; conditions: 0 to 10 scale
Outline: (§1)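 Test chemicals were sprayed onto freshly planted seed and, concurrently, onto young plants between the one and four leaf stage. After a twelve- to sixteen-day greenhouse period, each species was visually compared with untreated controls.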

[2] = test system: bedstraw; assay: as above; format: in vivo, Galium aparine; conditions: 0 to 10 scale
Outline: as §1

[3] = test system: barley; assay: as above; format: in vivo, Hordeum vulgare; conditions: 0 to 10 scale
Outline: as §1

[4] = test system: sorghum; assay: Test C preemergence/postemergence greenhouse plant response rating 0 to 100; format: in vivo, Sorghum bicolor; conditions: POSTEMERGENCE; for Plant response rating, Sorghum: 0 to 100 scale
Outline: (§2)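 Compounds in non-phytotoxic solvent went onto sandy loam before emergence (seeded one day earlier) or onto plants at the one-to-four leaf stage. Duck salad was treated via flood water (~2.5 cm, maintained) over silt loam.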

[5] = test system: wheat; assay: as above; format: in vivo, Triticum aestivum; conditions: POSTEMERGENCE; for Plant response rating, Wheat: 0 to 100 scale
Outline: as §2

[6] = test system: wild oat; assay: as above; format: in vivo, Avena fatua; conditions: POSTEMERGENCE; for Plant response rating, Wild oat: 0 to 100 scale
Outline: as §2

[7] = test system: cotton; assay: Test B preemergence/postemergence greenhouse plant response rating 0 to 10; format: in vivo, Gossypium hirsutum; conditions: 0 to 10 scale
Outline: as §1

[8] = test system: downy brome; assay: Test C preemergence/postemergence greenhouse plant response rating 0 to 100; format: in vivo, Bromus tectorum; conditions: POSTEMERGENCE; for Plant response rating Downy Brome: 0 to 100 scale
Outline: as §2

[9] = test system: blackgrass; assay: Test B preemergence/postemergence greenhouse plant response rating 0 to 10; format: in vivo, Alopecurus myosuroides; conditions: 0 to 10 scale
Outline: as §1

[10] = test system: barnyardgrass; assay: Test C flood test plant response rating 0 to 100; format: in vivo, Echinochloa crus-galli; conditions: for Plant response rating (0 to 100), Barnyardgrass 2: under POSTEMERGENCE head (flood test species); for Plant response rating Barnyardgrass 2: flood test species listed under POSTEMERGENCE, 0 to 100 scale
Outline: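 Compounds in non-phytotoxic solvent applied preemergence to sandy loam one day after planting, postemergence at the 1–4 leaf stage, or to ~2.5 cm floodwater over silt loam.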

[11] = test system: sugar beet; assay: Test B preemergence/postemergence greenhouse plant response rating 0 to 10; format: in vivo, Beta vulgaris; conditions: 0 to 10 scale
Outline: as §1

[12] = test system: wheat; assay: as above; format: in vivo, Triticum aestivum; conditions: 0 to 10 scale
Outline: as §1

[13] = test system: rape; assay: Test C preemergence/postemergence greenhouse plant response rating 0 to 100; format: in vivo, Brassica napus; conditions: POSTEMERGENCE; for Plant response rating, Rape: 0 to 100 scale
Outline: as §2

[14] = test system: lambsquarters; assay: Test B preemergence/postemergence greenhouse plant response rating 0 to 10; format: in vivo, Chenopodium album; conditions: 0 to 10 scale
Outline: as §1

[15] = test system: wild buckwheat; assay: Test C preemergence/postemergence greenhouse plant response rating 0 to 100; format: in vivo, Polygonum convolvulus; conditions: POSTEMERGENCE; for Plant response rating, Wild buckwheat: 0 to 100 scale
Outline: as §2

[16] = test system: crabgrass; assay: as above; format: in vivo, Digitaria sanguinalis; conditions: POSTEMERGENCE; for Plant response rating, Crabgrass: 0 to 100 scale
Outline: as §2

[17] = test system: ryegrass; assay: as above; format: in vivo, Lolium multiflorum; conditions: POSTEMERGENCE; for Plant response rating Ryegrass: 0 to 100 scale
Outline: as §2

[18] = test system: sorghum; assay: Test B preemergence/postemergence greenhouse plant response rating 0 to 10; format: in vivo, Sorghum bicolor; conditions: 0 to 10 scale
Outline: as §1

CCOC(=O)COc1cc(-c2nn3c(c2Cl)CCCC3)c(F)cc1Cl [Compound 42]
Plant response rating, Wild oat ([1]; POSTEMERGENCE, Rate 50 g/ha): 1 | Plant response rating, Wild oat ([1]; PREEMERGENCE, Rate 50 g/ha): 0 | Plant response rating, Wild oat ([1]; Rate 200 g/ha, POSTEMERGENCE): 3 | Plant response rating, Bedstraw ([2]; POSTEMERGENCE, Rate 50 g/ha): 10 | Plant response rating, Bedstraw ([2]; POSTEMERGENCE, Rate 200 g/ha): 9 | Plant response rating, Bedstraw ([2]; PREEMERGENCE, Rate 50 g/ha): 7 | Plant response rating, Bedstraw ([2]; Rate 200 g/ha, PREEMERGENCE): 9 | Plant response rating, Barley ([3]; POSTEMERGENCE, Rate 50 g/ha): 3 | Plant response rating, Barley ([3]; POSTEMERGENCE, Rate 200 g/ha): 4 | Plant response rating, Barley ([3]; PREEMERGENCE, Rate 50 g/ha): 0 | Plant response rating, Barley ([3]; Rate 200 g/ha, PREEMERGENCE): 0 | Plant response rating, Sorghum ([4]; 62 g/ha): 60 | Plant response rating, Sorghum ([4]; 125 g/ha): 70 | Plant response rating (0 to 100), Sorghum ([4]; Rate 16 g/ha): 40 | Plant response rating (0 to 100), Sorghum ([4]; Rate 31 g/ha): 50 | Plant response rating, Wheat ([5]; 62 g/ha): 30 | Plant response rating, Wheat ([5]; 125 g/ha): 40 | Plant response rating (0 to 100), Wheat ([5]; Rate 16 g/ha): 10 | Plant response rating (0 to 100), Wheat ([5]; Rate 31 g/ha): 20 | Plant response rating, Wild oat ([6]; 62 g/ha): 30 | Plant response rating, Wild oat ([6]; 125 g/ha): 30 | Plant response rating (0 to 100), Wild oat ([6]; Rate 16 g/ha): 10 | Plant response rating (0 to 100), Wild oat ([6]; Rate 31 g/ha): 10 | Plant response rating, Cotton ([7]; POSTEMERGENCE, Rate 50 g/ha): 10 | Plant response rating, Cotton ([7]; POSTEMERGENCE, Rate 200 g/ha): 10 | Plant response rating, Cotton ([7]; PREEMERGENCE, Rate 50 g/ha): 0 | Plant response rating, Cotton ([7]; Rate 200 g/ha, PREEMERGENCE): 0 | Plant response rating Downy Brome ([8]; 62 g/ha): 30 | Plant response rating Downy Brome ([8]; 125 g/ha): 50 | Plant response rating (0 to 100), Downy Brome ([8]; Rate 16 g/ha): 20 | Plant response rating (0 to 100), Downy Brome ([8]; Rate 31 g/ha): 30 | Plant response rating, Blackgrass ([9]; POSTEMERGENCE, Rate 50 g/ha): 2 | Plant response rating, Blackgrass ([9]; POSTEMERGENCE, Rate 200 g/ha): 3 | Plant response rating, Blackgrass ([9]; PREEMERGENCE, Rate 50 g/ha): 0 | Plant response rating, Blackgrass ([9]; Rate 200 g/ha, PREEMERGENCE): 0 | Plant response rating (0 to 100), Barnyardgrass 2 ([10]; Rate 16 g/ha): 0 | Plant response rating (0 to 100), Barnyardgrass 2 ([10]; Rate 31 g/ha): 20 | Plant response rating Barnyardgrass 2 ([10]; 62 g/ha): 40 | Plant response rating Barnyardgrass 2 ([10]; 125 g/ha): 60 | Plant response rating, Sugar beet ([11]; POSTEMERGENCE, Rate 50 g/ha): 10 | Plant response rating, Sugar beet ([11]; PREEMERGENCE, Rate 50 g/ha): 10 | Plant response rating, Sugar beet ([11]; Rate 200 g/ha, POSTEMERGENCE): 10 | Plant response rating, Sugar beet ([11]; Rate 200 g/ha, PREEMERGENCE): 10 | Plant response rating, Wheat ([12]; POSTEMERGENCE, Rate 50 g/ha): 2 | Plant response rating, Wheat ([12]; PREEMERGENCE, Rate 50 g/ha): 0 | Plant response rating, Wheat ([12]; Rate 200 g/ha, POSTEMERGENCE): 5 | Plant response rating, Wheat ([12]; Rate 200 g/ha, PREEMERGENCE): 0 | Plant response rating, Rape ([13]; 62 g/ha): 95 | Plant response rating, Rape ([13]; 125 g/ha): 100 | Plant response rating (0 to 100), Rape ([13]; Rate 16 g/ha): 50 | Plant response rating (0 to 100), Rape ([13]; Rate 31 g/ha): 70 | Plant response rating, Lambsquarter ([14]; POSTEMERGENCE, Rate 50 g/ha): 9 | Plant response rating, Lambsquarter ([14]; PREEMERGENCE, Rate 50 g/ha): 9 | Plant response rating, Lambsquarter ([14]; Rate 200 g/ha, POSTEMERGENCE): 10 | Plant response rating, Lambsquarter ([14]; Rate 200 g/ha, PREEMERGENCE): 10 | Plant response rating, Wild buckwheat ([15]; 62 g/ha): 100 | Plant response rating, Wild buckwheat ([15]; 125 g/ha): 100 | Plant response rating (0 to 100), Wild buckwheat ([15]; Rate 16 g/ha): 60 | Plant response rating (0 to 100), Wild buckwheat ([15]; Rate 31 g/ha): 70 | Plant response rating, Crabgrass ([16]; 62 g/ha): 10 | Plant response rating, Crabgrass ([16]; 125 g/ha): 40 | Plant response rating (0 to 100), Crabgrass ([16]; Rate 16 g/ha): 10 | Plant response rating (0 to 100), Crabgrass ([16]; Rate 31 g/ha): 10 | Plant response rating Ryegrass ([17]; 62 g/ha): 30 | Plant response rating Ryegrass ([17]; 125 g/ha): 40 | Plant response rating (0 to 100), Ryegrass ([17]; Rate 16 g/ha): 10 | Plant response rating (0 to 100), Ryegrass ([17]; Rate 31 g/ha): 20 | Plant response rating, Sorghum ([18]; POSTEMERGENCE, Rate 50 g/ha): 4 | Plant response rating, Sorghum ([18]; PREEMERGENCE, Rate 50 g/ha): 0 | Plant response rating, Sorghum ([18]; Rate 200 g/ha, POSTEMERGENCE): 5 | Plant response rating, Sorghum ([18]; Rate 200 g/ha, PREEMERGENCE): 0
